Reference: patent publication US8637013B2, “Treatment of drug-related side effect and tissue damage by targeting the CD24-HMGB1-Siglec10 axis” (The Regents of The University of Michigan, priority 2009, dated 2014)
No end group written: not given here.

How the values were obtained:
[1] = system: sialidase activity in the sera of sepsis mice; test: Serum sialidase activity of CLP mice (Amplex Red Neuraminidase assay kit); type: biochemical, mouse; conditions: sera from CLP mice mixed with inhibitors prior to the assay
[2] = molecular target: T1, CD24-Siglec 10 interaction (Homo sapiens, UniProt Q96LC7); test: Inhibition of CD24-Siglec 10 interaction by sialosides (microplate binding assay); conditions: for Inhibition of CD24-Siglec 10 interaction: Siglec 10Fc preincubated with sialoside, then added to plate-bound CD24Fc
T1 construct: Recombinant protein consisting of human IgG Fc and extracellular domains of Siglec 10; purchased R&D Systems
T1 sequence (Q96LC7 17-550 limits assumed): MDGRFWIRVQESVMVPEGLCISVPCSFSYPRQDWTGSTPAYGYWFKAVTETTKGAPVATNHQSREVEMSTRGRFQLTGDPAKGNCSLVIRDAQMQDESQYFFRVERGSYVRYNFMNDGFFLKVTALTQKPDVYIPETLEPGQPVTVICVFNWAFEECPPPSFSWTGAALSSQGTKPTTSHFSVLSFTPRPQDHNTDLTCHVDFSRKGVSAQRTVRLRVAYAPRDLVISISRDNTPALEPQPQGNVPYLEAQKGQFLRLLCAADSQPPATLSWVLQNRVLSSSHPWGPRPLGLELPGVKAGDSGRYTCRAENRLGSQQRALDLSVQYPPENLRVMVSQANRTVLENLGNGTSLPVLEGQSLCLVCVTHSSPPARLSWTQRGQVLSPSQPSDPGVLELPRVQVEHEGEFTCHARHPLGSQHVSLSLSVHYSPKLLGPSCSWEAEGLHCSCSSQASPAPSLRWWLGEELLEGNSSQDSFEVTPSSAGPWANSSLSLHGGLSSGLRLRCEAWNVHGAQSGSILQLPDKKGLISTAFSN

[3] = system: AAP-induced liver damage in WT B6 mice; test: AAP-induced liver damage in WT mice treated with CD24Fc; type: in vivo; conditions: AAP 16 mg/mouse, 5 hours after AAP, vs control IgG Fc
HMGB1 [4] = molecular target: T2, HMGB1 (Homo sapiens, UniProt P09429); test: Co-immunoprecipitation of HMGB1 with CD24-Fc; type: binding; conditions: vs control IgG-Fc; cation-dependent
T2 construct: the full-length HMGB-1 expression vector was transfected into TSA cells; FLAG; made in house; host or cells: TSA cells (purified protein)
T2 sequence (P09429 1-215): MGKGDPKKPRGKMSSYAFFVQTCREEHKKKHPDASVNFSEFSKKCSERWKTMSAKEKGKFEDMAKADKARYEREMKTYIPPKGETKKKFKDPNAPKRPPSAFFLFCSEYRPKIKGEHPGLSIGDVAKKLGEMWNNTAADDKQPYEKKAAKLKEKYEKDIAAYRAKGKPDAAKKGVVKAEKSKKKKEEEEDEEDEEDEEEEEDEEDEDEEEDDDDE

HMGB1 [5] = test: Co-immunoprecipitation of HMGB1 with CD24-Fc; type: binding, human; conditions: FLAG-tagged constructs in COS7 cell lysates

## CC(=O)N[C@@H]1C(O)C=C(C(=O)O)OC1[C@H](O)[C@H](O)CO (stereo partly drawn) [Compound 1, 2,3-dehydro-2-deoxy-N-acetylneuraminic acid]
[1]
  Inhibition of sialidase activity in the serum of sepsis mice: minimal effect

## O=C(CO)N[C@H]1[C@H]([C@H](O)[C@H](O)CO)OC(C(=O)O)=C[C@@H]1O [Neu5Gc2en, 2,3-dehydro-2-deoxy-N-glycolylneuraminic acid]
[1]
  Inhibition of sialidase activity in the serum of sepsis mice: partial inhibition

## CC(=O)N[C@H]1[C@H]([C@H](O)[C@H](O)CO)O[C@@](OC[C@H]2O[C@@H](O[C@H]3[C@H](O)[C@@H](O)C(O)O[C@@H]3CO)[C@H](O)[C@@H](O)[C@H]2O)(C(=O)O)C[C@@H]1O (stereo partly drawn) [Neu5Acα2-6Lac]
[2]; 2-6 versus 2-3 linked sialoside
  Relative potency in inhibiting CD24-Siglec 10 interaction: more potent
[2]
  Inhibition of CD24-Siglec 10 interaction: efficient inhibition

## CC(=O)N[C@H]1[C@H]([C@H](O)[C@H](O)CO)O[C@@](O[C@H]2[C@@H](O)[C@@H](CO)O[C@@H](O[C@H]3[C@H](O)[C@@H](O)C(O)O[C@@H]3CO)[C@@H]2O)(C(=O)O)C[C@@H]1O (stereo partly drawn) [Neu5Acα2-3Lac]
[2]
  Inhibition of CD24-Siglec 10 interaction: efficient inhibition

## CD24Fc: fusion protein that binds to HMGB1 and Siglec 10 (SETTTGTSSNSSQSTSNSGLAPNPTNATTK; not fully specified (C-terminus); also: fused to dimerising Fc (not given here))
[3]
  Inflammatory cytokines in serum (IL-6, IL-10, MCP-1, IFN-γ, TNF-α): massive reduction
HMGB1 [4]
  Coimmunoprecipitation of recombinant HMGB-1: specifically coimmunoprecipitated
HMGB1 [5]
  Immunoprecipitation of box A-containing HMGB1 mutant: not the box A-containing mutant
  Immunoprecipitation of full length HMGB1 and box B-containing mutant: immunoprecipitated
